Reference: patent US20110230367A1, “Amphiphilic Peptides Promoting Production of Target miRNA and Method of Regulating Production of Target miRNA” (SNU R&DB FOUNDATION, priority 2009, published 2011)
“Also recorded” adds a separate entry of the source. Like-named read-outs stand apart in the source and are kept apart here.

Experiments:
pre-miR16-1 = experiment: Dissociation constant by competitive fluorescence anisotropy with rhodamine-rev peptide probe; type: binding; details: for Discrimination ratio pre-miR16-1 (in parenthesis): Kd against other RNA/Kd against target miRNA
Procedure: (§1) The binding affinity between the peptide synthesized in <Example 1> and pre-miRNA from <Example 2> were measured by fluorescence anisotropy using competitive binding method. A rev peptide with rhodamine attached at the N-terminal was used as a fluorescent probe and LS-55 luminescence spectrometer from Perkin-Elmer was use for analysis. A constant temperature of 20° C. was maintained by a water bath. The fluorescent intensity was measured by of 200 nM of rhodamine-rev peptide was measured with an excitation wavelength at 550 nm (band path 10 nm) and detection at 580 nm (band path 10 nm). The integration time […]. Each experimental value is the mean value of 5 measurements. A 20 mM of HEPES{4-(2-hydroxyethyl)-1-piperazineethanesulfonic acid} buffer (pH 7.5) containing 140 mM NaCl, 5 mM KCl and 1 mM MgCl2 was used for measuring the dissociation constant. The dissociation constant was determined according to the Mathematical Formula 1 and using Kaledia graph.
(§2) A and Ao are the fluorescence anistropy in the presence or absence of RNA, whereas ΔA is the difference between these two values. [RNA]0 and [Rh-rev]0 are initial concentrations of RNA and rev peptide binding with rhodamine.
(§3) According the method described in <Example 3>, the dissociation constant between second generation peptide and 2 pre-miRNAs synthesized from <Example 2> was determined using fluorescent polarization detection method and fluorescent probe molecule.

HBV (hairpin RNA) = experiment: as above; type: binding; details: Table 6
Procedure: as §1, §2, §3

IRES (hairpin RNA) = experiment: as above; type: binding; details: Table 6
Procedure: as §1, §2, §3

pre-miR24-1 = experiment: as above; type: binding; details: Table 6; for Discrimination ratio pre-miR24-1 (in parenthesis): Kd against other RNA/Kd against target miRNA
Procedure: as §1, §2, §3

pre-let7a-1 = experiment: as above; type: binding; details: for Discrimination ratio pre-let7a-1 (in parenthesis): Kd against other RNA (HBV, IRES, other miRNAs)/Kd against target miRNA
Procedure: as §1, §2, §3

[1] = system: recombinant human Dicer processing pre-miR16-1; experiment: Dicer activity assay in the presence of peptide, substrate pre-miR16-1; type: biochemical; details: 400 nM peptide, pre-miR16-1 substrate, FIG. 2
Procedure: (§4) Two types of pre-miRNA (pre-let7a-1, pre-miR16-1) used as the substrate for the Dicer enzyme activity assay was ordered and manufactured by ST Pharm Co., Ltd (FIG. 1). For Dicer activity assay, the 5′ end of the synthesized pre-miRNA was labeled with ^32p isotope. Two pmole of each pre-miRNA was isotope labeled with […] of [g-^32P]ATP (New England Biolabs) using 10 units of T4 polynucleotide kinase (New England Biolabs). Total volume of 10 μl was isotope labeled for 1 hr at 37° C. The isotope labeled RNA obtained after the reaction was purified using G-25 Sephadex column (Sigma). The purified substrate was used for measuring Dicer enzyme activity. Total reaction mixture of 30 μl containing 1 nM of isotope labeled pre-miRNA and 0.001 u/μl of recombinant human Dicer (Genlantis, CA, USA) were incubated at 37° C. in 24 mM 4-(2-hydroxyethyl)-1-piperazineethanesulfonic acid, HEPES) buffer system containing 200 mM NaCl, 0.04 mM EDTA, 1 mM ATP and 2.5 mM MgCl2(pH 8.0). After reacting for 0, 10, 30, 60 or 120 min in the presence of 400 nM concentration of 2b or 2c peptide, 3 μl of each reaction mixture was mixed with 5 μl of RNA gel loading buffer {95% formamide, 10 mM ethylenediaminetetraacetic acid (EDTA), 0.05% FF (xylene cyanol FF)} and incubated for 5 min at 65° C. The amount of the reaction product was determined by gel running in 15% polyacrylamide gel containing 7M urea, and then the initial reaction velocity (V0) from each reaction was compared. The initial reaction velocity (V0) of the enzyme is the reaction velocity of the initial linear time (until 30 min). Each initial velocity was normalized with the initial velocity from each substrate condition without peptide treatment. The initial reaction velocity of Dicer for pre-let7a-1 and pre-miR16-1 without peptide treatment were […] and 0.018 fmole/min, respectively. Each of the initial reaction velocity is a mean data of more than 3 measurements, and the standard deviation is shown as error bars.

[2] = system: recombinant human Dicer processing pre-let7a-1; experiment: Dicer activity assay in the presence of peptide, substrate pre-let7a-1; type: biochemical; details: for initial reaction velocity (V0) of Dicer, normalized to no peptide: 400 nM peptide, pre-let7a-1 substrate, FIG. 2; for initial reaction velocity of Dicer: FIG. 3
Procedure: as §4, with “[…],” for “60 or 120 min in the presence of 400 nM concentration of 2b or 2c peptide,”

[3] = Table 5, second generation peptides, read-out: Kd value against pre-miR16-1
[4] = Table 6, read-out: Kd pre-miR16-1
[5] = Table 5, second generation peptides, read-out: Kd value against pre-let7a-1
[6] = Table 6, read-out: Kd pre-let7a-1

| Sequence | binding with pre-miR16-1 (pre-miR16-1) | Kd (pre-miR16-1; [3]) | Discrimination ratio pre-miR16-1 (in parenthesis) (pre-miR16-1; Table 6) | Kd (pre-miR16-1; [4]) | Kd (HBV (hairpin RNA)) | Kd (IRES (hairpin RNA)) | Kd (pre-miR24-1) | Discrimination ratio pre-miR24-1 (in parenthesis) (pre-miR24-1) | Kd (pre-let7a-1; [5]) | Discrimination ratio pre-let7a-1 (in parenthesis) (pre-let7a-1; Table 6) | Kd (pre-let7a-1; [6]) | initial reaction velocity (V0) of Dicer, normalized to no peptide [1] | initial reaction velocity (V0) of Dicer, normalized to no peptide [2] | binding with pre-let7a-1 (pre-let7a-1) | discrimination ratio for pre-let7a-1 (pre-let7a-1; mean Kd against all hairpin pre-miRNA/Kd against target pre-miRNA) | hill slope ([2]; FIG. 3, concentration dependence, pre-miRNA substrate not named) | EC50 ([2]; FIG. 3, concentration dependence, pre-miRNA substrate not named, read-out: EC50 of initial velocity of Dicer in processing pre-miRNA) | initial reaction velocity of Dicer ([2]; peptide concentration higher than 100 nM) | initial reaction velocity of Dicer ([2]; peptide concentration higher than 1,000 nM) |
| --- | --- | --- | --- | --- | --- | --- | --- | --- | --- | --- | --- | --- | --- | --- | --- | --- | --- | --- | --- |
| WKKLLKLLKKWLKLAG [Peptide 2c, Ac-WKKLLKLLKKWLKLAG, 14] | first and second strongest binding | 270 pM | 1.4 | 270 pM | 460 pM | 460 pM | 880 pM | 0.41 | 150 pM | 2.8 | 150 pM | increase in initial reaction velocity; also recorded: accelerated | increase in initial reaction velocity; also recorded: accelerated | – | – | – | – | – | – |
| WKKLLKWLKKLLKLAG [Peptide 2b, Ac-WKKLLKWLKKLLKLAG, 13] | first and second strongest binding | 220 pM | 1.1 | 220 pM | 900 pM | 1000 pM | 430 pM | 1.5 | 67 pM | 11 | 67 pM | significantly increased; also recorded: accelerated | highest acceleration; also recorded: profound increase | strong binding; also recorded: strongest binding | 11 | 3.5 | 940000 pM | significant increase; also recorded: rapid increase | decrease |
